# Measurements taken from patent US20260130395A1, “Water Dispersible Botanical Compositions” (Aquila Black Limited, priority 2021, published 2026).
# Assay: Stability of cannabinoid compounds and Vitamin E components in Beverage 1 (AB White) by LCMSMS
# Format: physicochemical
# [1] = AB White stored at 8° C., 570 days
# [2] = AB White stored at 21-25° C., 570 days
smiles,measurement,setting,value
"CCCCCc1cc(O)c2c(c1)OC(C)(C)[C@@H]1CCC(C)=C[C@@H]21 [D9 THC, delta-9-tetrahydrocannabinol, reference compound]","Stability of Plant-Derived Cannabinoid Compounds in AB White, 8° C.","AB White stored at 8° C., 29 days",12.25 µg/mL
same,"Stability of Plant-Derived Cannabinoid Compounds in AB White, 8° C.","AB White stored at 8° C., 30 days",12.05 µg/mL
same,"Stability of Plant-Derived Cannabinoid Compounds in AB White, 8° C.","AB White stored at 8° C., 60 days",11.77 µg/mL
same,"Stability of Plant-Derived Cannabinoid Compounds in AB White, 8° C.","AB White stored at 8° C., 90 days",11.92 µg/mL
same,"Stability of Plant-Derived Cannabinoid Compounds in AB White, 8° C.","AB White stored at 8° C., 120 days",11.79 µg/mL
same,"Stability of Plant-Derived Cannabinoid Compounds in AB White, 8° C.","AB White stored at 8° C., 150 days",12.07 µg/mL
same,"Stability of Plant-Derived Cannabinoid Compounds in AB White, 8° C.","AB White stored at 8° C., 180 days",11.66 µg/mL
same,"Stability of Plant-Derived Cannabinoid Compounds in AB White, 8° C.","AB White stored at 8° C., 210 days",11.79 µg/mL
same,"Stability of Plant-Derived Cannabinoid Compounds in AB White, 8° C.","AB White stored at 8° C., 240 days",11.70 µg/mL
same,"Stability of Plant-Derived Cannabinoid Compounds in AB White, 8° C.","AB White stored at 8° C., 270 days",11.98 µg/mL
same,"Stability of Plant-Derived Cannabinoid Compounds in AB White, 8° C.","AB White stored at 8° C., 300 days",11.70 µg/mL
same,"Stability of Plant-Derived Cannabinoid Compounds in AB White, 8° C.","AB White stored at 8° C., 330 days",11.68 µg/mL
same,"Stability of Plant-Derived Cannabinoid Compounds in AB White, 8° C.","AB White stored at 8° C., 360 days",11.88 µg/mL
same,"Stability of Plant-Derived Cannabinoid Compounds in AB White, 8° C.","AB White stored at 8° C., 390 days",11.85 µg/mL
same,"Stability of Plant-Derived Cannabinoid Compounds in AB White, 8° C.","AB White stored at 8° C., 420 days",11.77 µg/mL
same,"Stability of Plant-Derived Cannabinoid Compounds in AB White, 8° C.","AB White stored at 8° C., 450 days",11.80 µg/mL
same,"Stability of Plant-Derived Cannabinoid Compounds in AB White, 8° C.","AB White stored at 8° C., 480 days",11.60 µg/mL
same,"Stability of Plant-Derived Cannabinoid Compounds in AB White, 8° C.","AB White stored at 8° C., 510 days",11.33 µg/mL
same,"Stability of Plant-Derived Cannabinoid Compounds in AB White, 8° C.","AB White stored at 8° C., 540 days",11.27 µg/mL
same,"Stability of Plant-Derived Cannabinoid Compounds in AB White, 8° C.",[1],11.21 µg/mL
same,stability over the entire period (in words),[1],high degree of stability
same,"Stability of Plant-Derived Cannabinoid Compounds in AB White, 21-25° C.","AB White stored at 21-25° C., 0 days",12.2 µg/mL
same,"Stability of Plant-Derived Cannabinoid Compounds in AB White, 21-25° C.","AB White stored at 21-25° C., 1 days",11.8 µg/mL
same,"Stability of Plant-Derived Cannabinoid Compounds in AB White, 21-25° C.","AB White stored at 21-25° C., 2 days",12.0 µg/mL
same,"Stability of Plant-Derived Cannabinoid Compounds in AB White, 21-25° C.","AB White stored at 21-25° C., 3 days",11.9 µg/mL
same,"Stability of Plant-Derived Cannabinoid Compounds in AB White, 21-25° C.","AB White stored at 21-25° C., 5 days",12.1 µg/mL
same,"Stability of Plant-Derived Cannabinoid Compounds in AB White, 21-25° C.","AB White stored at 21-25° C., 8 days",12.3 µg/mL
same,"Stability of Plant-Derived Cannabinoid Compounds in AB White, 21-25° C.","AB White stored at 21-25° C., 9 days",11.8 µg/mL
same,"Stability of Plant-Derived Cannabinoid Compounds in AB White, 21-25° C.","AB White stored at 21-25° C., 10 days",11.7 µg/mL
same,"Stability of Plant-Derived Cannabinoid Compounds in AB White, 21-25° C.","AB White stored at 21-25° C., 11 days",12.1 µg/mL
same,"Stability of Plant-Derived Cannabinoid Compounds in AB White, 21-25° C.","AB White stored at 21-25° C., 12 days",11.9 µg/mL
same,"Stability of Plant-Derived Cannabinoid Compounds in AB White, 21-25° C.","AB White stored at 21-25° C., 15 days",12.1 µg/mL
same,"Stability of Plant-Derived Cannabinoid Compounds in AB White, 21-25° C.","AB White stored at 21-25° C., 16 days",12.1 µg/mL
same,"Stability of Plant-Derived Cannabinoid Compounds in AB White, 21-25° C.","AB White stored at 21-25° C., 17 days",11.9 µg/mL
same,"Stability of Plant-Derived Cannabinoid Compounds in AB White, 21-25° C.","AB White stored at 21-25° C., 18 days",11.8 µg/mL
same,"Stability of Plant-Derived Cannabinoid Compounds in AB White, 21-25° C.","AB White stored at 21-25° C., 19 days",12.3 µg/mL
same,"Stability of Plant-Derived Cannabinoid Compounds in AB White, 21-25° C.","AB White stored at 21-25° C., 22 days",11.9 µg/mL
same,"Stability of Plant-Derived Cannabinoid Compounds in AB White, 21-25° C.","AB White stored at 21-25° C., 23 days",12.0 µg/mL
same,"Stability of Plant-Derived Cannabinoid Compounds in AB White, 21-25° C.","AB White stored at 21-25° C., 24 days",12.1 µg/mL
same,"Stability of Plant-Derived Cannabinoid Compounds in AB White, 21-25° C.","AB White stored at 21-25° C., 25 days",12.3 µg/mL
same,"Stability of Plant-Derived Cannabinoid Compounds in AB White, 21-25° C.","AB White stored at 21-25° C., 26 days",12.1 µg/mL
same,"Stability of Plant-Derived Cannabinoid Compounds in AB White, 21-25° C.","AB White stored at 21-25° C., 29 days",11.9 µg/mL
same,"Stability of Plant-Derived Cannabinoid Compounds in AB White, 21-25° C.","AB White stored at 21-25° C., 30 days",11.9 µg/mL
same,"Stability of Plant-Derived Cannabinoid Compounds in AB White, 21-25° C.","AB White stored at 21-25° C., 60 days",11.9 µg/mL
same,"Stability of Plant-Derived Cannabinoid Compounds in AB White, 21-25° C.","AB White stored at 21-25° C., 90 days",12.0 µg/mL
same,"Stability of Plant-Derived Cannabinoid Compounds in AB White, 21-25° C.","AB White stored at 21-25° C., 120 days",11.7 µg/mL
same,"Stability of Plant-Derived Cannabinoid Compounds in AB White, 21-25° C.","AB White stored at 21-25° C., 150 days",11.7 µg/mL
same,"Stability of Plant-Derived Cannabinoid Compounds in AB White, 21-25° C.","AB White stored at 21-25° C., 180 days",11.9 µg/mL
same,"Stability of Plant-Derived Cannabinoid Compounds in AB White, 21-25° C.","AB White stored at 21-25° C., 210 days",11.4 µg/mL
same,"Stability of Plant-Derived Cannabinoid Compounds in AB White, 21-25° C.","AB White stored at 21-25° C., 240 days",11.7 µg/mL
same,"Stability of Plant-Derived Cannabinoid Compounds in AB White, 21-25° C.","AB White stored at 21-25° C., 270 days",11.9 µg/mL
same,"Stability of Plant-Derived Cannabinoid Compounds in AB White, 21-25° C.","AB White stored at 21-25° C., 300 days",12.0 µg/mL
same,"Stability of Plant-Derived Cannabinoid Compounds in AB White, 21-25° C.","AB White stored at 21-25° C., 330 days",11.4 µg/mL
same,"Stability of Plant-Derived Cannabinoid Compounds in AB White, 21-25° C.","AB White stored at 21-25° C., 360 days",11.7 µg/mL
same,"Stability of Plant-Derived Cannabinoid Compounds in AB White, 21-25° C.","AB White stored at 21-25° C., 390 days",11.4 µg/mL
same,"Stability of Plant-Derived Cannabinoid Compounds in AB White, 21-25° C.","AB White stored at 21-25° C., 420 days",11.7 µg/mL
same,"Stability of Plant-Derived Cannabinoid Compounds in AB White, 21-25° C.","AB White stored at 21-25° C., 450 days",11.7 µg/mL
same,"Stability of Plant-Derived Cannabinoid Compounds in AB White, 21-25° C.","AB White stored at 21-25° C., 480 days",11.2 µg/mL
same,"Stability of Plant-Derived Cannabinoid Compounds in AB White, 21-25° C.","AB White stored at 21-25° C., 510 days",11.2 µg/mL
same,"Stability of Plant-Derived Cannabinoid Compounds in AB White, 21-25° C.","AB White stored at 21-25° C., 540 days",11.2 µg/mL
same,"Stability of Plant-Derived Cannabinoid Compounds in AB White, 21-25° C.",[2],11.2 µg/mL
same,stability over the entire period (in words),[2],high degree of stability
